Experimental data as given in PubChem BioAssay (NCI).
Several values for one entry are separate records, joined by “and”; a condition that tells them apart may be missing. Equal values may be shown once.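 All cell lines were grown in 96-well plates and treated with compound for 48 hours. GI50: concentration for 50% inhibition of growth. Definition used: TGI = concentration required for complete inhibition of growth.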

These compounds were tested on MDA-MB-468 breast (assay: DTP human tumour cell line panel, 48 h).

SMILES | GI50 | TGI
CCCC[C@@H]1NC(=O)[C@H](CCCCN)NC(=O)[C@H](CCCNC(=N)N)NC(=O)[C@H](CC(C)C)NC(=O)[C@@H](NC(=O)[C@H](Cc2cccc(Cl)c2)NC(=O)[C@@H]2CCCN2C(=O)[C@@H](NC(C)=O)C(C)C)CCSSC[C@@H](C(=O)N[C@@H](CCCCN)C(=O)N2CCC[C@H]2C(=O)N2CCC[C@H]2C(=O)N[C@@H](CCC(=O)O)C(N)=O)NC(=O)[C@H](Cc2ccccc2)NC(=O)[C@H](CO)NC(=O)[C@H](C)NC(=O)[C@@H]2CCCN2C1=O | > 50 µM | > 50 µM
OCCN1CCN(CCCN2c3ccccc3Sc3ccc(C(F)(F)F)cc32)CC1 | 0.827 µM and 3.63 µM and 2.63 µM | 2.08 µM and 15.4 µM and 11.3 µM
O=C1Nc2ccc(Cl)cc2/C1=C\c1c(-c2ccc(F)cc2)nc2ccccn12 | 2.08 µM | 6.19 µM
COc1ccc(-c2nc(-c3nc4ccc(F)cc4[nH]3)cc3c2[nH]c2ccccc23)cc1 | 2.08 µM | > 100 µM
CN1CCN(c2ccc(Nc3nc(NCCCNS(=O)(=O)c4cccc5ccccc45)c4sccc4n3)cc2)CC1 | 2.1 µM | 6.23 µM
c1ccc2c(c1)O[As](O[As]1Oc3ccccc3O1)O2 | 1.25 µM | 4.04 µM
Cc1nc2sc(C(=O)Nc3cccc4ccccc34)c(N)c2cc1C(C)O (centres undefined) | 0.126 µM | 0.416 µM
COc1ccc(/C=C2/CN(C(=O)c3ccccc3F)C/C(=C\c3ccc(OC)cc3)C2=O)cc1 | 1.91 µM | 4.49 µM
COc1cc(-c2c3c(cn2S(=O)(=O)c2ccccc2)-c2nc(N)sc2CC3)cc(OC)c1OC | 0.426 µM | 22.2 µM
O=C1C=C(SCCO)C(=O)c2ccccc21 | 1.51 µM | 3.46 µM
COC1=CC(c2ccc[nH]2)=N/C1=C\c1[nH]c(C)c(C(=O)CCC(=O)Oc2ccc3c(c2)CCC2C3CC[C@]3(C)C(=O)CC[C@@H]23)c1C (some centres undefined) | 16.9 µM | > 100 µM
COc1ccc2c(c1)Oc1nc(N)c(C#N)c(N)c1C2Sc1ccc(SC)cc1 (centres undefined) | 1.75 µM | 3.59 µM
CN(C(=O)c1ccc(F)cc1C(F)(F)F)C1CCN(c2nnc(-c3ccnn3C)c3ccccc23)CC1 | 7.1 µM | 61.4 µM
COc1cc(O)c2c(c1)[C@H]1O[C@@H]1C[C@H](O)[C@H](O)C(=O)/C=C\C[C@H](C)OC2=O | 1.1 µM | 5.64 µM
COc1ccc(-c2cc3c4c(nc5ccccc5c4c2)CC(c2cc(OC)c(OC)c(OC)c2)O3)cc1 (centres undefined) | 2.63 µM | 10.5 µM
FC(F)(F)c1cc(Nc2ccc3c(OCCCN4CCOCC4)cccc3n2)ccc1Cl | 2.17 µM | 5.92 µM
ClCCN(CCCl)Cc1ccc(Nc2ccnc3cc(Cl)ccc23)cc1 | 0.702 µM | 2.99 µM
C=C1C(=O)O[C@H]2[C@H]1CC/C(COC(=O)OCCCCCOC(=O)OC/C1=C/CC[C@@]3(C)O[C@H]3[C@H]3OC(=O)C(=C)[C@@H]3CC1)=C\CC[C@@]1(C)O[C@@H]21 | 0.186 µM | 0.458 µM
C[C@@H]1O[C@@H](O[C@H]2C[C@@H](O)[C@]3(CO)C4C(CC[C@]3(O)C2)[C@@]2(O)CC[C@H](C3=CC(=O)OC3)[C@@]2(C)C[C@H]4O)[C@H](O)[C@H](O)[C@H]1O (some centres undefined) | 0.0841 µM | 0.187 µM
Cc1ccc(S(=O)(=O)N(C)C)cc1[N+](=O)[O-] | > 100 µM | > 100 µM
COC[C@H]1C(=O)NCC(=O)N2NCCC[C@H]2C(=O)N(O)[C@H](C)C(=O)O[C@@H](C(C)C)[C@H](NC(=O)[C@](C)(O)[C@]2(O)CC[C@@H](CC(C)C)[C@H](C)O2)C(=O)N2NCCC[C@@H]2C(=O)N1O | 0.014 µM | 0.0311 µM
O=C1C(=O)c2ccc(Br)cc2-c2cc(Br)ccc21 | 0.604 µM | 1.43 µM
CS(=O)(=O)c1nccc(-c2c(-c3cccc(OCc4ccc(F)cc4)c3)nc3sccn23)n1 | 1.99 µM | 3.98 µM
CO/N=C(\c1ccccc1)c1cnn(-c2ccccc2)c1N | > 25 µM | > 25 µM

SMILES | GI50 | TGI
O=C(CC12CC3CC(CC(C3)C1)C2)NCCOCCOCCNC(=O)c1cc2c(o1)C(=O)c1ccccc1C2=O | 1.21 µM | 3.3 µM
Brc1c[n+](Cc2ccc3ccccc3c2)cn1Cc1ccc2ccccc2c1 | 0.624 µM | 2.57 µM
O=C(NCc1cn(Cc2cccc(Oc3ccccc3)c2)nn1)c1cccnc1Nc1ccccc1 | 2.88 µM | 57.4 µM
Cc1cc(N(CCCl)CCCl)ccc1C=Nc1cccnc1 | 0.0712 µM | 0.521 µM
O=C1Nc2ccc(F)c3c(OCCO)cc(-c4ccc[nH]4)c1c23 | 0.528 µM | 1.83 µM
CCC(=O)Sc1ccccc1C(=O)Nc1ccc(Cl)cc1 | 9.97 µM | > 100 µM
COc1ccc(OC)c(/C=C/[N+](=O)[O-])c1 | 1.22 µM | 2.68 µM
Cn1ncc2c(Nc3ccc(Br)cc3)nc(Nc3ccc(Br)cc3)nc21 | 2.11 µM | 7.78 µM
COc1ccc2c(c1)O/C(=C\c1cccc(OCC(=O)Nc3nc4ccccc4s3)c1)C2=O | 6.04 µM | > 100 µM
O=S(=O)(Nc1ccc(-c2nc(-c3cccc(OCCN4CCOCC4)c3)c(-c3ccnc(Br)c3)[nH]2)cc1)c1ccccc1 | 1.85 µM | 5.24 µM
CCCOC(=O)N[C@H]1CCc2c(Br)c(OC)c(OC)c(OC)c2-c2ccc(SC)c(=O)cc21 | < 0.01 µM | 18.1 µM
Cn1ncc2cc(-c3cnc(N)c(Cl)c3N3CCC4(CCNC4=O)CC3)ccc21 | 16.4 µM | 63.1 µM
CC1(C)CCC(S(=O)(=O)c2ccc3c(c2)/C(=N\O)c2cc(S(=O)(=O)N4CCC(O)(c5cccc(C(F)(F)F)c5)CC4)ccc2-3)CC1 | 0.0176 µM | 0.0356 µM
CCOc1ccc(NC(=O)Nc2cc(C(C)C)ccc2C)cc1 | 5.67 µM | 51.8 µM
Cn1cc(-c2cc3c(Nc4ccc(CC(=O)Nc5cc(C(C)(C)C)on5)cc4)ncnc3[nH]2)cn1 | 0.325 µM and 0.242 µM | 1.08 µM and 0.737 µM
CCOC(=O)C1(Cc2ccc(C)cc2)Cc2ccc(C)cc2C1=O (centres undefined) | 10.4 µM | 37.4 µM
COc1cnc2c(c1)C(=O)c1c-2n(CCCn2ccnc2)c(=O)c2cc(OC)c(OC)cc12 | 0.0511 µM | 0.358 µM
COCCNCC(O)Cn1c2ccc(Cl)cc2c2cc(Cl)ccc21 (centres undefined) | 1.78 µM | 3.85 µM
OCC1SC(n2cnc3cncnc32)C(O)C1O (centres undefined) | > 100 µM | > 100 µM
O=C(NNc1nc2cc(F)ccc2n2c(CN3CCOCC3)ccc12)c1ccccc1 | 0.193 µM | 0.894 µM
Cc1ccc(NS(=O)(=O)c2ccc(-c3cnc(C4CC4)o3)cc2)cc1 | 1.17 µM | 5.83 µM
O=C(c1ccccc1)c1ccc(-c2ccc(O)cc2)cc1 | 1.94 µM | 8.86 µM
Cc1c(Cl)cccc1NC(=O)CC1Sc2ccccc2NC1=O (centres undefined) | 12.8 µM | 37.4 µM
